# Legend:
# Assay in all cases: relative viability (nuclei count vs DMSO), 5 days (fraction); higher = more cells survive
# RU-SKI 43 + Palbociclib = compound: CC[C@@H](C)CNCC(=O)N1CCC2=C([C@@H]1COC3=CC=CC(=C3)C)C=CS2 [RU-SKI 43] + CC(=O)c1c(C)c2cnc(Nc3ccc(N4CCNCC4)cn3)nc2n(C2CCCC2)c1=O [Palbociclib] (partner 0.5 µM)
# Method in brief: (§1)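 Relative viability is defined as nuclei in treated wells over nuclei in vehicle wells. Duplicate plates were run and medians reported. Lung cancer cell lines in 1536-well plates were dosed by pin tool one day after seeding, with one drug or with a fixed anchor-drug dose plus five library-drug doses (not always all listed) in √10 steps, and nuclei were counted after 5 days.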
# RU-SKI 43 + Dasatinib = compound: CC[C@@H](C)CNCC(=O)N1CCC2=C([C@@H]1COC3=CC=CC(=C3)C)C=CS2 [RU-SKI 43] + Cc1nc(Nc2ncc(C(=O)Nc3c(C)cccc3Cl)s2)cc(N2CCN(CCO)CC2)n1 [Dasatinib] (partner 0.075 µM)
# Method in brief: as §1
# Irinotecan + OSI-027 = compound: CCc1c2c(nc3ccc(OC(=O)N4CCC(N5CCCCC5)CC4)cc13)-c1cc3c(c(=O)n1C2)COC(=O)[C@]3(O)CC [Irinotecan] + COc1cccc2cc(-c3nc([C@H]4CC[C@H](C(=O)O)CC4)n4ncnc(N)c34)[nH]c12 [OSI-027] (partner 0.5 µM)
# Method in brief: as §1
# Irinotecan + AZD7762 = compound: CCc1c2c(nc3ccc(OC(=O)N4CCC(N5CCCCC5)CC4)cc13)-c1cc3c(c(=O)n1C2)COC(=O)[C@]3(O)CC [Irinotecan] + NC(=O)Nc1cc(-c2cccc(F)c2)sc1C(=O)N[C@H]1CCCNC1 [AZD7762] (partner 0.2 µM)
# Method in brief: as §1
Cell Line,relative viability (RU-SKI 43 + Palbociclib; first compound 0.1 µM),relative viability (RU-SKI 43 + Palbociclib; first compound 0.3162 µM),relative viability (RU-SKI 43 + Palbociclib; first compound 1 µM),relative viability (RU-SKI 43 + Palbociclib; first compound 3.162 µM),relative viability (RU-SKI 43 + Palbociclib; first compound 10 µM),relative viability (RU-SKI 43 + Dasatinib; first compound 0.1 µM),relative viability (RU-SKI 43 + Dasatinib; first compound 0.3162 µM),relative viability (RU-SKI 43 + Dasatinib; first compound 1 µM),relative viability (RU-SKI 43 + Dasatinib; first compound 3.162 µM),relative viability (RU-SKI 43 + Dasatinib; first compound 10 µM),relative viability (Irinotecan + OSI-027; first compound 0.6325 µM),relative viability (Irinotecan + OSI-027; first compound 2 µM),relative viability (Irinotecan + OSI-027; first compound 6.325 µM),relative viability (Irinotecan + OSI-027; first compound 20 µM),relative viability (Irinotecan + AZD7762; first compound 0.6325 µM),relative viability (Irinotecan + AZD7762; first compound 2 µM),relative viability (Irinotecan + AZD7762; first compound 6.325 µM),relative viability (Irinotecan + AZD7762; first compound 20 µM)
NCI-H1755,0.478,0.458,0.44,0.478,0.466,0.417,0.474,0.469,0.521,0.379,0.378,0.652,0.381,0.42,0.53,0.47,0.345,0.327
NCI-H1792,0.692,0.764,0.685,0.698,0.662,0.772,1.03,0.739,0.892,0.845,0.7,0.617,0.456,0.231,0.241,0.502,0.169,0.274
NCI-H1793,0.331,0.222,0.326,0.336,0.27,0.388,0.381,0.357,0.385,0.316,–,0.251,0.255,0.198,–,0.387,0.232,0.217
NCI-H1915,0.51,0.543,0.559,0.541,0.525,0.337,0.331,0.357,0.306,0.318,0.303,0.295,0.216,0.346,0.387,0.346,0.165,0.127
NCI-H1944,0.34,0.334,0.328,0.316,0.303,0.209,0.223,0.213,0.211,0.2,0.22,0.349,0.165,0.161,0.414,0.276,0.21,0.153
NCI-H1975,0.642,0.626,0.669,0.541,0.352,0.357,0.461,0.441,0.356,0.401,0.558,0.694,0.439,0.137,0.826,0.7,0.527,0.322
NCI-H1993,0.611,0.727,0.697,0.748,0.613,0.608,0.516,0.653,0.778,0.533,0.584,0.491,0.574,0.587,–,0.681,0.508,0.603
NCI-H2085,0.514,0.444,0.467,0.48,0.461,0.24,0.247,0.275,0.234,0.262,0.435,0.71,0.568,0.495,0.771,0.942,0.957,0.672
NCI-H2087,0.253,0.215,0.288,0.238,0.19,0.998,1.48,0.866,0.938,0.943,0.239,0.339,0.157,0.166,0.586,0.387,0.242,0.226
NCI-H2126,0.355,0.37,0.38,0.355,0.353,0.65,0.652,0.681,0.67,0.586,–,0.601,0.457,0.427,0.618,0.889,0.65,0.302
NCI-H2170,0.394,0.467,0.419,0.453,0.372,0.695,0.634,0.616,0.716,0.467,0.546,0.767,0.255,0.174,0.649,0.562,0.173,0.133
NCI-H2342,0.524,–,0.547,0.524,0.488,0.34,0.313,0.321,0.319,0.317,0.58,0.551,0.607,0.439,0.516,0.514,0.489,0.462
NCI-H2347,0.434,0.329,0.441,0.403,0.394,0.34,0.23,0.364,0.203,0.293,0.27,0.375,0.337,0.386,0.609,0.654,0.48,0.372
NCI-H2405,0.504,0.603,0.551,0.576,0.503,0.213,0.198,0.218,0.209,0.194,–,0.596,0.382,0.289,–,0.765,0.298,0.197
NCI-H3122,0.193,0.166,0.185,0.182,0.166,0.959,0.913,0.806,0.778,0.838,1.04,0.649,0.22,0.0566,0.941,0.34,0.145,0.139
PC-3 [JPC-3],0.534,0.479,0.561,0.558,0.343,1.07,1.09,0.973,0.968,0.939,0.46,0.785,0.397,0.344,0.465,0.864,0.463,0.398
PC-14,0.575,0.668,0.798,0.451,0.401,0.242,0.25,0.283,0.241,0.183,0.286,0.498,0.243,0.117,0.306,0.431,0.232,0.199
RERF-LC-KJ,1.1,1.4,1.15,1,0.851,0.788,0.938,0.992,0.771,0.704,0.364,0.492,0.534,0.112,0.55,1.03,0.568,0.277
SW 900,0.542,0.513,0.522,0.522,0.45,0.565,0.679,0.769,0.46,0.423,0.298,0.632,0.4,0.424,–,0.587,0.472,0.404

# — the supplement of paper PMC10307832
